Earlier results, collected in article PMC4982639, “Structural Basis of Microtubule Destabilization by Potent Auristatin Anti-Mitotics” (PLoS ONE, 2016).

Key:
cellular assays = settings: stated in the conclusions as background; no reference given
free tubulin = test system: free tubulin
Text: (§1) Low resolution crystal structures of dolastatin 10 derivatives in complex with tubulin have further confirmed the region of binding for the auristatins, which overlaps w ...

tubulin = settings: compared with vinca alkaloids, free tubulin
Text: as §1

tubulin dimers = settings: in vitro
Text: This model of curvature between dimers is supported in vitro by the formation of curved spiral or r ...

[1] = test system: cells expressing the CD30 epitope; settings: released in the cytosol from the internalized ADC Brentuximab vedotin
Text: The mechanisms by which these molecules act on tubulin dimers include the induction of curved aggregates and inhibition of nucleotide exchange. MMAE comprises the four amino acids monomethylvaline (MeVal), valine (Val), dolaisoleuine (Dil) and dolaproine (Dap), and the carboxy-terminal amine norephedrine (Fig 1A). This agent provides the cytotoxic activity for the ADC Brentuximab vedotin, currently designated for relapsed Hodgkin lymphoma and anaplastic large cell lymphoma. Bren ...

Molecule	potency in cellular assays (cellular assays)	formation of curved aggregates (tubulin dimers)	other results
monomethyl auristatin F [MMAF]	nano- and picomolar potency	–	–
dolastatin 10	–	–	type of inhibition of vinca alkaloids (free tubulin): non-competitive inhibitor of the vinca alkaloids; inhibition of nucleotide exchange (tubulin): much greater inhibition of nucleotide exchange
cryptophycin	–	formation of curved spiral or ring shaped aggregates	–
dolastatin	–	formation of curved spiral or ring shaped aggregates	–
monomethyl auristatin E [MMAE]	nano- and picomolar potency	–	cellular effect of released MMAE [1]: mitotic arrest and apoptosis
CC[C@]1(O)C[C@@H]2CN(CCc3c([nH]c4ccccc34)[C@@](C(=O)OC)(c3cc4c(cc3OC)N(C)[C@H]3[C@@](O)(C(=O)OC)[C@H](OC(C)=O)[C@]5(CC)C=CCN6CC[C@]43[C@@H]65)C2)C1 [vinblastine]	–	formation of curved spiral or ring shaped aggregates	–
